Experimental findings from EP0982026A2, “Use of aryl-cyclohexylamine derivatives in the manufacture of NMDA receptor blockers” (priority 1998, dated 2000) are described below.

Like-named read-outs stand apart in the source and are kept apart here.

The target in this test is T1, NMDA receptor (Rattus norvegicus, UniProt P35439+Q00960).
T1 construct: Membranes were prepared by homogenization of the whole brain minus cerebellum and medulla oblongata; from tissue; host or cells: rat whole brain minus cerebellum and medulla oblongata (membranes)
Description: 3H-Ro 25-6981 binding (displacement) on rat brain membranes. Also on record: species or system Füllinsdorf albino rats. On the procedure:
3H-Ro 25-6981 binding (Ro 25-6981 is [R-(R*,S*)]-a-(4-Hydroxy-phenyl)-b-methyl-4-(phenyl-methyl)-1-piperidine propanol)
Male Füllinsdorf albino rats weighing between 150-200 g were used. Membranes were prepared by homogenization of the whole brain minus cerebellum and medulla oblongata with a Polytron (10.000 rpm, 30 seconds), in 25 volumes of a cold Tris-HCl 50 mM, EDTA 10 mM, pH 7.1 buffer. The homogenate was centrifuged at 48.000 g for 10 minutes at 4°C. The pellet was resuspended using the Polytron in the same volume of buffer and the homogenate was incubated at 37°C for 10 minutes. After centrifugation the pellet was homogenized in the same buffer and frozen at -80°C for at least 16 hours but not more than 10 days. For the binding assay the homogenate was thawed at 37°C, centrifuged and the pellet was washed three times as above in a Tris-HCl 5 mM, pH 7.4 cold buffer. The final pellet was resuspended in the same buffer and used at a final concentration of […] of protein/ml.
3H-Ro 25-6981 binding experiments were performed using a Tris-HCl 50 mM, pH 7.4 buffer. For displacement experiments 5 nM of 3H-Ro 25-6981 were used and non specific binding was measured using 10 mM of tetrahydroisoquinoline and usually it accounts for 10% of the total. The incubation time was 2 hours at 4°C and the assay was stopped by filtration on Whatmann GF/B glass fiber filters (Unifilter-96, Packard, Zürich, Switzerland). The filters were washed 5 times with cold buffer. The radioactivity on the filter was counted on a Packard Top-count microplate scintillation counter after addition of […] of microscint 40 (Canberra Packard S.A., Zürich, Switzerland).
The effects of compounds were measured using a minimum of 8 concentrations and repeated at least once. The pooled normalized values were analyzed using a non-linear regression calculation program which provide IC50 with their relative upper and lower 95% confidence limits (RS1, BBN, USA).

[1] abbreviates: displacement of 5 nM 3H-Ro 25-6981, rat whole brain membranes (minus cerebellum and medulla oblongata), 2 hours at 4°C, read-out: IC50.

T1 sequence (Q00960 27-1482, other chains not shown): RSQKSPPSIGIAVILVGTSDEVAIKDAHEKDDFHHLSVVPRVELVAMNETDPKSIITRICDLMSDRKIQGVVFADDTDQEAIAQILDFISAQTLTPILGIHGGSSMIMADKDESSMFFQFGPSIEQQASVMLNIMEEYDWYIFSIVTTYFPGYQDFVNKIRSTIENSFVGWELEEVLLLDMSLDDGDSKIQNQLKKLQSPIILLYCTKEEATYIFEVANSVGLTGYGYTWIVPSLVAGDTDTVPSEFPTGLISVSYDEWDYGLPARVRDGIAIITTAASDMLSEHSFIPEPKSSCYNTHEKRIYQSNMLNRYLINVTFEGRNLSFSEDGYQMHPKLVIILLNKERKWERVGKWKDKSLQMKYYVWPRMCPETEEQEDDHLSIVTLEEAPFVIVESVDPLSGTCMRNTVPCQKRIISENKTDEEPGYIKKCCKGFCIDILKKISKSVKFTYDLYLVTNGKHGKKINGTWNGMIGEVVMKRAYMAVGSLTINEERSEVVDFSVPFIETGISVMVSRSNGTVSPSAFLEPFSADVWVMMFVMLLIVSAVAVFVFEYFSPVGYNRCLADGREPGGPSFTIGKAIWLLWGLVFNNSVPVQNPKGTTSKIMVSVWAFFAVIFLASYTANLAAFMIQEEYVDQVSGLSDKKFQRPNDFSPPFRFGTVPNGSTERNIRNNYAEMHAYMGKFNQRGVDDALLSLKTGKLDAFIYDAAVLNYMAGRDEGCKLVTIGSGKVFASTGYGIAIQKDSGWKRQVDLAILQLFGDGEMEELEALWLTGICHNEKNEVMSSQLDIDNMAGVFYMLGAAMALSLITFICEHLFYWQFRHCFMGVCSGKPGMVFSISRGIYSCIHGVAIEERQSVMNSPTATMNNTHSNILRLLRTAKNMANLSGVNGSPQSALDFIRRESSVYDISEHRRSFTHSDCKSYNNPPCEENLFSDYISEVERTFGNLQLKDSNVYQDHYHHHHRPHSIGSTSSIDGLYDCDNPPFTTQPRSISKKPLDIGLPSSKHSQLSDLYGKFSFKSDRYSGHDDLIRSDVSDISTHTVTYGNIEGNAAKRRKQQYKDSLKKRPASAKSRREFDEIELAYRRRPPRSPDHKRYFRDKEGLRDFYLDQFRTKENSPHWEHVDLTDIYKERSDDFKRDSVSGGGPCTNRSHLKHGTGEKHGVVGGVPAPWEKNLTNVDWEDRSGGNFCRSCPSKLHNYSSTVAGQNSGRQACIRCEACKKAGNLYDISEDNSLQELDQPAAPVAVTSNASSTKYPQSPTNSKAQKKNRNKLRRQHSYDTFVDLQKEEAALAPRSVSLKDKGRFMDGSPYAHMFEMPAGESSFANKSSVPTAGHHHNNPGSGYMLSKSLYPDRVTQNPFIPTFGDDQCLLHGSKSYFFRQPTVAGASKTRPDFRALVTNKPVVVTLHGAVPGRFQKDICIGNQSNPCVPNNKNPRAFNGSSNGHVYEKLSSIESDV

In general, IC50 refers to the concentration needed to halve the response being measured. Take `Oc1ccc([C@H]2CC[C@H](NCC(O)Cc3ccccc3)CC2)cc1` (mixture of isomers) [Example 50, (RS)-4-[trans-4-(2-Hydroxy-3-phenyl-propylamino)-cyclohexyl]-phenol]: under setting [1], the half-maximal inhibitory concentration (IC50) stood at 80 nM.

`CC(CCc1ccccc1)N(C)[C@H]1CC[C@H](c2ccc(O)cc2)CC1` (mixture of isomers) [Example 57b, (RS)-4-[trans-4-[Methyl-(1-methyl-3-phenyl-propyl)-amino]-cyclohexyl]-phenol]: the IC50 under setting [1] was found to be 10 nM.

For the compound `CC(CCc1ccccc1)N[C@H]1CC[C@H](c2ccc(O)cc2)CC1` (mixture of isomers) [Example 58, 4-[trans-4-[(RS)-1-Methyl-3-phenyl-propylamino)-cyclohexyl]-phenol], under setting [1], the IC50 was 40 nM.

As to `CN(CCC(O)c1ccccc1)[C@H]1CC[C@H](c2ccc(O)cc2)CC1` (mixture of isomers) [Example 63b, (RS)-4-[trans-4-[(3-Hydroxy-3-phenyl-propyl)-methyl-amino]-cyclohexyl]-phenol], under setting [1], the concentration for half-maximal inhibition (IC50) stood at 20 nM.

Turning to `Oc1ccc([C@H]2CC[C@H](NCCC(O)c3ccccc3)CC2)cc1` (mixture of isomers) [Example 64b, (RS)-4-[trans-4-(3-Hydroxy-3-phenyl-propylamino)-cyclohexyl]-phenol], the half-maximal inhibitory concentration (IC50) under setting [1] came out at 60 nM.

`CN(C(CO)CCc1ccccc1)[C@H]1CC[C@H](c2ccc(O)cc2)CC1` (mixture of isomers) [Example 65b, (RS)-4-[trans-4-[(1-Hydroxymethyl-3-phenyl-propyl)-methyl-amino]-cyclohexyl]-phenol]: the half-inhibitory concentration (IC50) under setting [1] is 10 nM.

As to `OCC(CCc1ccccc1)N[C@H]1CC[C@H](c2ccc(O)cc2)CC1` (mixture of isomers) [Example 66c, (RS)-4-[trans-4-(1-Hydroxymethyl-3-phenyl-propylamino)-cyclohexyl]-phenol], under setting [1], the IC50 amounted to 20 nM.

With `CN(CCC(CO)c1ccccc1)[C@H]1CC[C@H](c2ccc(O)cc2)CC1` (mixture of isomers) [Example 67b, (RS)-4-[trans-4-[(4-Hydroxy-3-phenyl-butyl)-methyl-amino]-cyclohexyl]-phenol], under setting [1], the IC50 was determined as 100 nM.

Consider `OCC(CN[C@H]1CC[C@H](c2ccc(O)cc2)CC1)Cc1ccccc1` (mixture of isomers) [Example 70b, (RS)-4-[trans-4-(2-Hydroxymethyl-3-phenyl-propylamino)-cyclohexyl]-phenol], for which the 50% inhibitory concentration (IC50) under setting [1] came to 100 nM.

Consider `C[C@@H]1C[C@H](c2ccc(O)cc2)CC[C@H]1N(C)CCCc1ccccc1` (racemic) [Example 73b, (1RS,3RS,4RS)-4-[3-Methyl-4-[methyl-(3-phenyl-propyl)-amino]-cyclohexyl]-phenol], for which the half-maximal inhibitory concentration (IC50) under setting [1] stood at 10 nM.

As for `C[C@@H]1C[C@H](c2ccc(O)cc2)CC[C@H]1NCCCc1ccccc1` (racemic) [Example 74c, (1RS,3RS,4RS)-4-[3-Methyl-4-(3-phenyl-propylamino)-cyclohexyl]-phenol], the IC50 under setting [1] worked out at 10 nM.

In the case of `C[C@@H]1CN(c2ccc(O)cc2)CC[C@@H]1NCCCc1ccccc1` (racemic) [Example 81g, (3RS,4SR)-4-[3-Methyl-4-(3-phenyl-propylamino)-piperidin-1-yl]-phenol], the 50% inhibitory concentration (IC50) under setting [1] came out at 27 nM.

For the compound `Oc1ccc([C@H]2CC[C@H](NCCCc3ccccc3)CC2)cc1` [Example 22b, trans-4-[4-(3-Phenyl-propylamino)-cyclohexyl]-phenol], under setting [1], the 50% inhibitory concentration (IC50) worked out at 20 nM.

Turning to `Oc1ccc([C@H]2CC[C@H](NCCCCc3ccccc3)CC2)cc1` [Example 24, trans-4-[4-(4-Phenyl-butylamino)-cyclohexyl]-phenol], under setting [1], the half-maximal inhibitory concentration (IC50) came to 70 nM.

On to `CN(CCCc1ccccc1)[C@H]1CC[C@H](c2ccc(O)cc2)CC1` [Example 39b, trans-4-{4-[Methyl-(3-phenyl-propyl)-amino]-cyclohexyl}-phenol], for which the IC50 under setting [1] turned out to be 9 nM.

As for `CCN(CCCc1ccccc1)[C@H]1CC[C@H](c2ccc(O)cc2)CC1` [Example 40c, trans-4-{4-[Ethyl-(3-phenyl-propyl)-amino]-cyclohexyl}-phenol], under setting [1], the half-maximal inhibitory concentration (IC50) came to 40 nM.

As to `CN(CCOc1ccccc1)[C@H]1CC[C@H](c2ccc(O)cc2)CC1` [Example 41b, trans-4-{4-[Methyl-(2-phenoxy-ethyl)-amino]-cyclohexyl}-phenol], the IC50 under setting [1] was found to be 20 nM.

In the case of `Oc1ccc([C@H]2CC[C@H](NCCOc3ccccc3)CC2)cc1` [Example 43b, trans-4-[4-(2-Phenoxy-ethylamino)-cyclohexyl]-phenol], under setting [1], the IC50 amounted to 20 nM.

Consider `Cc1ccc(OCCN(C)[C@H]2CC[C@H](c3ccc(O)cc3)CC2)cc1` [Example 44b, trans-4-[4-[Methyl-(2-p-tolyloxy-ethyl)-amino]-cyclohexyl]-phenol], for which, under setting [1], the IC50 was found to be 8 nM.

As to `Cc1ccc(OCCN(C)[C@H]2CC[C@@H](c3ccc(O)cc3)CC2)cc1` [Example 45b, cis-4-[4-[Methyl-(2-p-tolyloxy-ethyl)-amino]-cyclohexyl]-phenol], under setting [1], the 50% inhibitory concentration (IC50) is 130 nM.

In the case of `CN(CCOc1ccc(F)cc1)[C@H]1CC[C@H](c2ccc(O)cc2)CC1` [Example 46b, trans-4-(4-{[2-(4-Fluoro-phenoxy)-ethyl]-methyl-amino}-cyclohexyl)-phenol], the IC50 under setting [1] came to 10 nM.

`Cc1cccc(OCCN(C)[C@H]2CC[C@H](c3ccc(O)cc3)CC2)c1` [Example 47b, trans-4-{4-[Methyl-(2-m-tolyloxy-ethyl)-amino]-cyclohexyl}-phenol]: the IC50 under setting [1] is 30 nM.

`Cc1ccccc1OCCN(C)[C@H]1CC[C@H](c2ccc(O)cc2)CC1` [Example 48c, trans-4-{4-[Methyl-(2-o-tolyloxy-ethyl)-amino]-cyclohexyl}-phenol]: the IC50 under setting [1] amounted to 40 nM.

With `CN(CCCc1ccccc1)[C@H]1CC[C@H](c2ccc(NS(C)(=O)=O)cc2)CC1` [Example 56, trans-N-(4-{4-[Methyl-(3-phenyl-propyl)-amino]-cyclohexyl}-phenyl)-methanesulfonamide], the 50% inhibitory concentration (IC50) under setting [1] worked out at 11 nM.

`Cc1ccc(CCCN[C@H]2CC[C@H](c3ccc(O)cc3)CC2)cc1` [Example 60b, trans-4-[4-(3-p-Tolyl-propylamino)-cyclohexyl]-phenol]: the IC50 under setting [1] is 7 nM.

Consider `CN(CCCc1ccc(F)cc1)[C@H]1CC[C@H](c2ccc(O)cc2)CC1` [Example 61b, trans-4-(4-{[3-(4-Fluoro-phenyl)-propyl]-methyl-amino}-cyclohexyl)-phenol], for which the 50% inhibitory concentration (IC50) under setting [1] was determined as 4 nM.

As for `Oc1ccc([C@H]2CC[C@H](NCCCc3ccc(F)cc3)CC2)cc1` [Example 62b, trans-4-[4-[3-(4-Fluoro-phenyl)-propylamino]-cyclohexyl]-phenol], the IC50 under setting [1] amounted to 6 nM.

In turn, `Oc1ccc(C2(O)CCC(NCCCc3ccccc3)CC2)cc1` (stereo not drawn) [Example 71c, cis-4-[1-Hydroxy-4-(3-phenyl-propylamino)-cyclohexyl]-phenol] returned an IC50 of 25 nM.

With `CN(CCCc1ccccc1)C1CCN(c2ccc(O)cc2)CC1` [Example 75, 4-[4-[Methyl-(3-phenyl-propyl)-amino]-piperidin-1-yl]-phenol], under setting [1], the IC50 is 7 nM.

For `Oc1ccc(N2CCC(NCCCc3ccccc3)CC2)cc1` [Example 77, 4-[4-(3-Phenyl-propylamino)-piperidin-1-yl]-phenol], the 50% inhibitory concentration (IC50) under setting [1] was found to be 7 nM.

Consider `Oc1ccc(N2CCC(NCCCCc3ccccc3)CC2)cc1` [Example 83c, 4-[4-(4-Phenyl-butylamino)-piperidin-1-yl]-phenol], for which the 50% inhibitory concentration (IC50) under setting [1] worked out at 60 nM.

`Oc1ccc([C@H]2OC[C@H](NCCCc3ccccc3)CO2)cc1` [Example 85, trans-4-[5-(3-Phenyl-propylamino)-[1,3]dioxan-2-yl]-phenol 1:1 but-2-enedioic acid] had an IC50 of 22 nM.
